Assay results taken from US12194033B2, “Glycine receptor modulators and methods of use” (University of Pittsburgh—Of the Commonwealth System of …, priority 2017, dated 2025).

Columns and labels:
4 2-nAChR = 4 2-nAChR (Homo sapiens, UniProt P17787+P43681); assay: Radioligand binding assay, off-target profiling; details: 10 M MJPY1, mean, n = 4
S296A mutation in α3GlyR = molecular target: T1, S296A mutation in α3GlyR (Homo sapiens, UniProt O75311, S329A); assay: Electrophysiology on Xenopus laevis oocytes, S296A mutant; assay type: cell-based; details: EC2 agonist, 10 μM compound
T1 construct: expressed in transfected cells; host or cells: Xenopus laevis oocytes
T1 sequence (O75311 34-464 S329A): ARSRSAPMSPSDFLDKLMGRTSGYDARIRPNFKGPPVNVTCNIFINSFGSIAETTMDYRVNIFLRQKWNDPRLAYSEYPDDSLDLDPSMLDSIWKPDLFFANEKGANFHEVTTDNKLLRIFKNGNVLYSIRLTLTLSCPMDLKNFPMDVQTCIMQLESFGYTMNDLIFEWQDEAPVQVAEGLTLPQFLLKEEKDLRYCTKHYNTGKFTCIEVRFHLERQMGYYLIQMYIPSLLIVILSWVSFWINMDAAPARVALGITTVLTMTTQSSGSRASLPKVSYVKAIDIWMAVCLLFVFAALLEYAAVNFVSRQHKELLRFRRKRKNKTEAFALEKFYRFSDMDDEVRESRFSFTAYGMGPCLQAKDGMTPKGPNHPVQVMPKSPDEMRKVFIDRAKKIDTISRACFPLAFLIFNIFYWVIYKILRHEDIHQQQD
Protocol: (§1) MJPY1 potentiates α3GlyR through binding to the THC-binding site near S296 in the transmembrane domain (TMD). Like α3GlyR, but unlike ELIC, the chimera ELIC-α3GlyR containing the α3GlyR TMD is potentiated by MJPY1. The S296A mutation in α3GlyR abolishes compound 1 (MJPY1)'s potentiation. Data were recorded at EC2 agonist for the indicated channels and are reported as the ratio of currents in the presence (I) and absence (Io) of 10 μM compound 1 (MJPY1). Error bars represent SEM (n≥4 oocytes).

NMDAR = assay: Radioligand binding assay, off-target profiling; details: 10 M MJPY1, mean, n = 4
DOR = DOR (Homo sapiens, UniProt P41143); assay: Radioligand binding assay, off-target profiling; details: 10 M MJPY1, mean, n = 4
DOR, sequence (P41143 whole entry): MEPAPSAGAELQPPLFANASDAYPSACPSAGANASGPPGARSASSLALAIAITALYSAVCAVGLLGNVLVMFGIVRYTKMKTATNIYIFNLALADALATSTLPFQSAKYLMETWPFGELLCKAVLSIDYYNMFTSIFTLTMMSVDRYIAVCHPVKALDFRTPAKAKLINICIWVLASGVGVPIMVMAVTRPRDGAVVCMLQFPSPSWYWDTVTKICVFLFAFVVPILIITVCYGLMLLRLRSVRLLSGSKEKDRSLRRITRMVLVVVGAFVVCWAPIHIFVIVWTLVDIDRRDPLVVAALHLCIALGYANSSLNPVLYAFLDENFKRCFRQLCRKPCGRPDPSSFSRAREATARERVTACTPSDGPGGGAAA

KOR = KOR (Homo sapiens, UniProt P41145); assay: Radioligand binding assay, off-target profiling; details: 10 M MJPY1, mean, n = 4
KOR, sequence (P41145 whole entry): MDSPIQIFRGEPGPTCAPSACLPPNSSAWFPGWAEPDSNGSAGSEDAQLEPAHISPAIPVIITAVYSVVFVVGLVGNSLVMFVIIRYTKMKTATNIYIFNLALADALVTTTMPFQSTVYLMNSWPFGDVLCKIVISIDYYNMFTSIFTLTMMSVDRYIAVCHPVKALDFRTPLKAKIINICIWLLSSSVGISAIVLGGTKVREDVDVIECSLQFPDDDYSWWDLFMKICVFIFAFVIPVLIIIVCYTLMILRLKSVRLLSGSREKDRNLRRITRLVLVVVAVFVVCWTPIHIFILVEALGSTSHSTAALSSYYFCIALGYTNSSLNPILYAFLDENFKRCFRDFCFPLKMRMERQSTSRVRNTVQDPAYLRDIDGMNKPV

CB2 = molecular target: T2, CB2 (Homo sapiens, UniProt P34972); assay: PRESTO-TANGO functional assay CB2; assay type: cell-based; details: against positive controls, n=3
T2 construct: expressed in transfected cells
T2 sequence (P34972 whole entry): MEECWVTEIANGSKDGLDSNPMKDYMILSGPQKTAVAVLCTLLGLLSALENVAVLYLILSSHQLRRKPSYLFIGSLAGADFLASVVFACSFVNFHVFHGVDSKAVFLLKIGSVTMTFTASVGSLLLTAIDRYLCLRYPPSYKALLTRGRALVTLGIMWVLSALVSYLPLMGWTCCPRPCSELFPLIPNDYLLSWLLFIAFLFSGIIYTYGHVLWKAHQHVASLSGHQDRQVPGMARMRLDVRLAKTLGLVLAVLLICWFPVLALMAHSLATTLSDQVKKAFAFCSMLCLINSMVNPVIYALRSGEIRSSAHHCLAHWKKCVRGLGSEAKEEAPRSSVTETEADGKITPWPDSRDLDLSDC
Protocol: (§2) The specificity of compound 1 (MJPY1) to act only on glycine receptors was determined. No cross reactivity with other commonly known receptors was detected (FIG. 16 and Table 2). […] Activity is reported in relative luminescence units (RLU) as mean and SEM (n=3).

[1] = system: chimera ELIC-α3GlyR containing the α3GlyR TMD; assay: Electrophysiology on Xenopus laevis oocytes, chimera; assay type: cell-based; details: EC2 agonist, 10 μM compound
Protocol: as §1

CB1 = molecular target: T3, CB1 (Homo sapiens, UniProt P21554); assay: PRESTO-TANGO functional assay CB1; assay type: cell-based; details: against positive controls, n=3
T3 construct: expressed in transfected cells
T3 sequence (P21554 whole entry): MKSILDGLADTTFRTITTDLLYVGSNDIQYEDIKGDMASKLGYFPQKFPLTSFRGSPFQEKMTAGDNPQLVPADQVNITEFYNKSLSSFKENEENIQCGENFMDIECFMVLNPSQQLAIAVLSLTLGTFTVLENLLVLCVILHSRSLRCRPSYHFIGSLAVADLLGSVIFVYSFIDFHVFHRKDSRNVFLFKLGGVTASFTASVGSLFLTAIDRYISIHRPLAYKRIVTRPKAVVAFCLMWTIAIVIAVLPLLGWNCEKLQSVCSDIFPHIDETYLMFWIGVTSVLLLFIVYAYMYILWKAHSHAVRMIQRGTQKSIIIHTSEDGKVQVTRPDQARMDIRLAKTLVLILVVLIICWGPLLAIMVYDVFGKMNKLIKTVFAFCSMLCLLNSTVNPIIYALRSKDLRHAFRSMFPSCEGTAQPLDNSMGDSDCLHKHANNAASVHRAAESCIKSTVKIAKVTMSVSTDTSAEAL
Protocol: as §2

[2] = system: TA100 strain Salmonella typhimurium; assay: In vitro Ames test; assay type: cell-based; details: S9 rat liver extract
Protocol: (§3) Toxicity was evaluated using in vitro Ames test and in vivo immune responses flow cytometry. Compound 1 (MJPY1) at each concentration was tested in three 48-well plates using the TA100 strain Salmonella typhimurium and S9 rat liver extract for base-pair substitution mutations. Error bars represent SEM. Significance (p<0.05) was evaluated compared to the control (0 μM) using one-way ANOVA with the Bonferroni post-hoc test. FIGS. 15A and 15B show flow cytometry evaluation of common inflammatory markers in the liver and spleen of mice in response to compound 1 (MJPY1) treatment. Mice received either 2 mg/kg of MJPY1 (right) or vehicle (left) ˜16 hours prior to sacrifice and tissue collection. Significant differences between the treatment and control were observed only for decreased CD11b+ in the liver of mice treated with MJPY1 (p<0.001). […] Results were analyzed by one-way ANOVA with Bonferroni post-hoc test.

[3] = system: inflammatory markers in the liver and spleen of mice; assay: In vivo immune responses by flow cytometry; details: 2 mg/kg, ~16 hours prior to sacrifice
Protocol: as §3

hERG = hERG (Homo sapiens, UniProt Q12809); assay: Radioligand binding assay, off-target profiling; details: 10 µM MJPY1, mean, n = 4
hERG, sequence (Q12809 whole entry): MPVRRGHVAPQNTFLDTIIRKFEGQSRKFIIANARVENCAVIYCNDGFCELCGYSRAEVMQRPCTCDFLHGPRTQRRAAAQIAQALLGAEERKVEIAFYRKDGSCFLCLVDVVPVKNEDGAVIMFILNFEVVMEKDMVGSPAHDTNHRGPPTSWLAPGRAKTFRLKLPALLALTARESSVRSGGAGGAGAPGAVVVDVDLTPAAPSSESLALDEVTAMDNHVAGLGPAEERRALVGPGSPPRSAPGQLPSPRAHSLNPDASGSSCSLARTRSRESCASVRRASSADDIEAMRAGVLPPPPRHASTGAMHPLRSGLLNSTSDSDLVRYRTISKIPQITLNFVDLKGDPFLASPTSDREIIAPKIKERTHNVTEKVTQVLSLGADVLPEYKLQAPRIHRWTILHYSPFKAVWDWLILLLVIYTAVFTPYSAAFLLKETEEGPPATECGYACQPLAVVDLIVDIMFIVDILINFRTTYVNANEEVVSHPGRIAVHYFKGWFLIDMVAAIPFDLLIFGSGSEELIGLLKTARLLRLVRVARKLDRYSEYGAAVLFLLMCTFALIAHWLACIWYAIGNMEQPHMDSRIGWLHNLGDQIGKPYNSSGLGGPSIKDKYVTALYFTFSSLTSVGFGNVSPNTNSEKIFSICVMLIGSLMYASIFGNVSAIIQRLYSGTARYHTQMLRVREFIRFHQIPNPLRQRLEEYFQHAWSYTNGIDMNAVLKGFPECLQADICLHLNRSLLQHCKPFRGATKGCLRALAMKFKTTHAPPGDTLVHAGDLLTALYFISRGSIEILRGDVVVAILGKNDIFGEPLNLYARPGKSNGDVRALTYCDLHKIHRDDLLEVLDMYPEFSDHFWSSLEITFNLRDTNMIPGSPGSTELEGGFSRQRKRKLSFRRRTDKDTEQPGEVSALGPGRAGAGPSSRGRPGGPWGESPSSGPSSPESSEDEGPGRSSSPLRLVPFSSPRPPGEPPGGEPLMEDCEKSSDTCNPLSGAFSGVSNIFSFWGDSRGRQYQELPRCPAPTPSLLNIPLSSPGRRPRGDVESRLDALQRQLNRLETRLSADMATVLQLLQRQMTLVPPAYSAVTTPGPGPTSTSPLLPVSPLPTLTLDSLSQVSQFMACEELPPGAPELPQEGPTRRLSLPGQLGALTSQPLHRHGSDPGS

5-HT3R = molecular target: T4, 5-HT3R (Homo sapiens, UniProt P46098); assay: Radioligand binding assay, off-target profiling; details: 10 M MJPY1, mean, n = 4
T4 sequence (P46098 24-478): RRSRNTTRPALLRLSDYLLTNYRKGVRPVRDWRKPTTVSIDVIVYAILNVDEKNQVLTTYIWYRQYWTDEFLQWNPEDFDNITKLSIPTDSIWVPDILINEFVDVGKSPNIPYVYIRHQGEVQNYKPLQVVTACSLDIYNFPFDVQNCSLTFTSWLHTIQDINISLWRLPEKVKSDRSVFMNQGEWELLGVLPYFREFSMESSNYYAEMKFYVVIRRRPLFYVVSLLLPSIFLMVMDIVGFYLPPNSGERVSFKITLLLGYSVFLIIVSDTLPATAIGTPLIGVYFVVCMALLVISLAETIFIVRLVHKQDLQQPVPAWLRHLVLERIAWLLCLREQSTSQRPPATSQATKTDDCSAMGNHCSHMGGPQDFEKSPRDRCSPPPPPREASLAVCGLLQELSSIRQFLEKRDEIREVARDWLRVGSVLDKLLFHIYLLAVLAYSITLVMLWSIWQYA

mice = assay: Two-plate thermal preference test (30° C. vs 55° C.); assay type: in vivo
Protocol: Responses to the two-plate thermal preference test were assessed under naïve conditions and 1 hour after administration of 0.2 mg/kg compound 1, 0.1 mg/kg morphine, or 0.2 mg/kg compound 1+0.1 mg/kg morphine. Unrestrained mice were exposed to plates set to normal and hot temperatures (30° C. and 55° C., respectively). Temperature preference was measured by percentage time spent on the hot plate (55° C.) over the course of 4 minutes, where 50% indicates no preference between the two temperatures. […] Error bars designate the standard error of the mean (n≥5).
Unrestrained mice were exposed to plates set to normal and hot temperatures (30° C. and 55° C., respectively) for 10 minutes. […] Error bars designate the standard error of the mean (n=4).
The percent inactivity on the 55° C. plate (mean±SEM) is a measure of heat tolerance. Significance was assessed by one-way ANOVA with LSD post-hoc test.

MOR = MOR (Homo sapiens, UniProt P35372); assay: Radioligand binding assay, off-target profiling; details: 10 M MJPY1, mean, n = 4
MOR, sequence (P35372 whole entry): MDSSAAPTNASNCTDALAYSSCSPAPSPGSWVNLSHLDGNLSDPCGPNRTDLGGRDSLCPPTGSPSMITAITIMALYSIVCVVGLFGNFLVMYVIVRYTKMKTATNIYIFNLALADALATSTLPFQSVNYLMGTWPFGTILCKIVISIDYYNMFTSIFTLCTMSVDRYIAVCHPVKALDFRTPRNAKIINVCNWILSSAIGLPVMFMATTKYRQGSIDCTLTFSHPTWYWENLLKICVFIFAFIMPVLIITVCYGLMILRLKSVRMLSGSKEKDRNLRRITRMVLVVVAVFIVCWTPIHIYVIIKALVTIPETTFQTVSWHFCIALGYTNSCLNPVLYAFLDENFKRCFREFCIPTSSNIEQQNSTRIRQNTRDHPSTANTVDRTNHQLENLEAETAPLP

4 2-nAChR, sequence (P43681 29-627 limits assumed): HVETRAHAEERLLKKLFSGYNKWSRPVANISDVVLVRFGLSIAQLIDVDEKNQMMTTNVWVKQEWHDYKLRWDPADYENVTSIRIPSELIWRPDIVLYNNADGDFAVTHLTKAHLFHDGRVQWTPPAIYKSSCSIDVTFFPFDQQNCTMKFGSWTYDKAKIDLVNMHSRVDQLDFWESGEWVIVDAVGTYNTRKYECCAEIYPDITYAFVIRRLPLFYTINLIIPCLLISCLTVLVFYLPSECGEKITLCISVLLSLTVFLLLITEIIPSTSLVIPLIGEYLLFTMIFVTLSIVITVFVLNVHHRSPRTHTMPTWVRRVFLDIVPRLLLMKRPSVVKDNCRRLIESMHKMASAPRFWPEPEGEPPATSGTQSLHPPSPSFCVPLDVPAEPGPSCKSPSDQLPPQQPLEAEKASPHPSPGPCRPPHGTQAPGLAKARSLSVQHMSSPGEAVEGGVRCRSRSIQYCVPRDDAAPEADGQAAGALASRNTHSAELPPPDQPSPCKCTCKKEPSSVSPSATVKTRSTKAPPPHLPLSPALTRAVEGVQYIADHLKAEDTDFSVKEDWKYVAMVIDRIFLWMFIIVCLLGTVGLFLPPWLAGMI
4 2-nAChR, sequence (P17787 26-502): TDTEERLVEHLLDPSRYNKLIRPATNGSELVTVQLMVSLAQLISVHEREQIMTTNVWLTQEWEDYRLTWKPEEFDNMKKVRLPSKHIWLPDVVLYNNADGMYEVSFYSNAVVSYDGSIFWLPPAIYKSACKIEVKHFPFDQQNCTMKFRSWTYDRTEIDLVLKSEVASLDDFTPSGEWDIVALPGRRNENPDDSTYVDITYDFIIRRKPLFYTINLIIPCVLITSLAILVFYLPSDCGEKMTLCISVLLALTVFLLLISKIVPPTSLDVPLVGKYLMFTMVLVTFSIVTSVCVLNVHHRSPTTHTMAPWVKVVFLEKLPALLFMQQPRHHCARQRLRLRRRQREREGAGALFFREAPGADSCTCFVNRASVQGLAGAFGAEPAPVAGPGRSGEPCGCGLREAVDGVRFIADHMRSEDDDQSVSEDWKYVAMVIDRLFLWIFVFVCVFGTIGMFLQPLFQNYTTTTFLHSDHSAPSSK

NC(=O)c1cccc(CNC(=O)c2ccc3c4c(cccc24)CC3)c1 [compound 1, N-[(3-carbamoylphenyl)-methyl]-1,2-dihydroacenaphthylene-5-carboxamide]
% Inhibition 4 2-nAChR (4 2-nAChR): −1.8% | potentiation of α3GlyR S296A (I/Io) (S296A mutation in α3GlyR): abolishes | % Inhibition NMDAR (NMDAR): −2.4% | % Inhibition DOR (DOR): 7.1% | % Inhibition KOR (KOR): 5.0% | agonist or antagonist activity on CB2 (RLU) (CB2): no agonist (top) or antagonist (bottom) activity | potentiation of chimera ELIC-α3GlyR (I/Io) [1]: potentiated | agonist or antagonist activity on CB1 (RLU) (CB1): no agonist (top) or antagonist (bottom) activity | mutagenic activity (base-pair substitution mutations) [2]: little mutagenic activity | overall immune response to treatment ([3]; liver and spleen): minimal immune response | CD11b+ in the liver vs vehicle ([3]; p<0.001): decreased | inhibition at 10 µM (hERG): -19.5% | % Inhibition 5-HT3R (5-HT3R): −5.7% | analgesic action compared with morphine (percent inactivity on the 55° C. plate) (mice; 0.1 mg/kg i.p., male CD1 mice, 24 hr after CFA, 1 hr after treatment, same dose): better than morphine | percentage time spent on the hot plate (55° C.) compared to naïve mice (mice; normal nociception, 1 hour after 0.2 mg/kg compound 1, 0.1 mg/kg morphine, or both, 4 minutes): no significant analgesic response | % Inhibition MOR (MOR): 20.6%
